Assay results: ChEMBL document CHEMBL4261615, “Design, synthesis, biological evaluation and cellular imaging of imidazo[4,5-b]pyridine derivatives as potent and selective TAM inhibitors” (Bioorg Med Chem, 2018); call rule not given here

How the values were obtained:
[1] = biological target: Cyclin-dependent kinase 2 (Homo sapiens) (UniProt P24941); assay: Binding affinity to wild-type human full length CDK2 (M1 to L298 residues) expressed in bacterial expression system assessed as fraction of unbound kinase to substrate at 10 uM after 1 hr by KinomeScan assay
[2] = biological target: Serine/threonine-protein kinase B-raf (Homo sapiens) (UniProt P15056); assay: Binding affinity to wild-type human partial length BRAF (S429 to E741 residues) expressed in mammalian expression system assessed as fraction of unbound kinase to substrate at 0.1 uM after 1 hr by KinomeScan assay
Chain of Serine/threonine-protein kinase B-raf (Homo sapiens) (P15056 whole entry, the tested form may be a part): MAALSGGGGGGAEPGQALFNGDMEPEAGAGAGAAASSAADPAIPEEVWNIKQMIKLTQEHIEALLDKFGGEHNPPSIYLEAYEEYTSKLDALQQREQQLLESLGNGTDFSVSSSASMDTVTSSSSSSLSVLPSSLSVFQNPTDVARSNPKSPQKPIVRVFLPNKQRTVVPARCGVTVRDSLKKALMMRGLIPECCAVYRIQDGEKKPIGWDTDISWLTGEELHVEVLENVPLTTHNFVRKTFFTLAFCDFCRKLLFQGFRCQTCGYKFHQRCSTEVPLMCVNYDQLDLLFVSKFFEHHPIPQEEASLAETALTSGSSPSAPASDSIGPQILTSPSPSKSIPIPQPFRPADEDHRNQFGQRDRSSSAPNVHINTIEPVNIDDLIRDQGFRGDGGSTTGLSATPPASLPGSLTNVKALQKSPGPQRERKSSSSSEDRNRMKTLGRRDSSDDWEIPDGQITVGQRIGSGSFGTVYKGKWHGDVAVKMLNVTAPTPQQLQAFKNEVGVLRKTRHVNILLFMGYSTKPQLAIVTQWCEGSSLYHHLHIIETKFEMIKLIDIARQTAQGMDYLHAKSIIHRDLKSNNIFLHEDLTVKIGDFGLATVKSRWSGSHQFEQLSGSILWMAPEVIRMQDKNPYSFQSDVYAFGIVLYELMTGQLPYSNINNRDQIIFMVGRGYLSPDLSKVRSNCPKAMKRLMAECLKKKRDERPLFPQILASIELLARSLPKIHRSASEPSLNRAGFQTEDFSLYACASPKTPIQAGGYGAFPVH

[3] = biological target: T1, Tyrosine-protein kinase receptor TYRO3 (Homo sapiens) (UniProt Q06418); assay: Binding affinity to wild-type human partial length TYRO3 (S497 to T814 residues) expressed in bacterial expression system assessed as fraction of unbound kinase to substrate at 0.1 uM after 1 hr by KinomeScan assay
T1 sequence (whole entry): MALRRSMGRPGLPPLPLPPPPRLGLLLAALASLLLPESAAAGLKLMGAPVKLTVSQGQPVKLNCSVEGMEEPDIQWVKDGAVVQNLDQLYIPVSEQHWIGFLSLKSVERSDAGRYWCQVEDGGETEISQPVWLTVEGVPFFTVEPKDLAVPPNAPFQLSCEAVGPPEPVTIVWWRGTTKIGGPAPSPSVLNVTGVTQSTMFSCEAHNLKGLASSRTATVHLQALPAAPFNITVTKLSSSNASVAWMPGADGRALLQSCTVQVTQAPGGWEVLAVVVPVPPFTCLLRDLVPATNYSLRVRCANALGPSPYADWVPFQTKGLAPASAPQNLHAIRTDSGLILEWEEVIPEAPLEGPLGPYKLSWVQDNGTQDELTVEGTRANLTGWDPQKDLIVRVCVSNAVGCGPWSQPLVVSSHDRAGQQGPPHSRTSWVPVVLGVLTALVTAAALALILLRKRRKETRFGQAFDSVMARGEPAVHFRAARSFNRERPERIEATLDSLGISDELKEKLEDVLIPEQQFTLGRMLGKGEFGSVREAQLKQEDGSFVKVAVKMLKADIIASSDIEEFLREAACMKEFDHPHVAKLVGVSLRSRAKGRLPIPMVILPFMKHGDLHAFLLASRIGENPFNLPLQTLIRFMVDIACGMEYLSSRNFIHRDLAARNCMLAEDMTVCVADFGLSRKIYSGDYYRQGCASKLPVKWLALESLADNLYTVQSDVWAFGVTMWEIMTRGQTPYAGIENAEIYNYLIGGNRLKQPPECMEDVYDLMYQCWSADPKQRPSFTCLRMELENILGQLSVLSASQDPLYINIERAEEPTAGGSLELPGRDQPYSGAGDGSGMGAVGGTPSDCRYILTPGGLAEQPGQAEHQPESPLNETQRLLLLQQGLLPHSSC

[4] = biological target: Epidermal growth factor receptor (Homo sapiens) (UniProt P00533); assay: Binding affinity to partial length wild type human EGFR (R669 to V1011 residues) expressed in bacterial expression system assessed as fraction of unbound kinase to substrate at 0.1 uM after 1 hr by KinomeScan assay
Chain of Epidermal growth factor receptor (Homo sapiens) (P00533 whole entry, the tested form may be a part): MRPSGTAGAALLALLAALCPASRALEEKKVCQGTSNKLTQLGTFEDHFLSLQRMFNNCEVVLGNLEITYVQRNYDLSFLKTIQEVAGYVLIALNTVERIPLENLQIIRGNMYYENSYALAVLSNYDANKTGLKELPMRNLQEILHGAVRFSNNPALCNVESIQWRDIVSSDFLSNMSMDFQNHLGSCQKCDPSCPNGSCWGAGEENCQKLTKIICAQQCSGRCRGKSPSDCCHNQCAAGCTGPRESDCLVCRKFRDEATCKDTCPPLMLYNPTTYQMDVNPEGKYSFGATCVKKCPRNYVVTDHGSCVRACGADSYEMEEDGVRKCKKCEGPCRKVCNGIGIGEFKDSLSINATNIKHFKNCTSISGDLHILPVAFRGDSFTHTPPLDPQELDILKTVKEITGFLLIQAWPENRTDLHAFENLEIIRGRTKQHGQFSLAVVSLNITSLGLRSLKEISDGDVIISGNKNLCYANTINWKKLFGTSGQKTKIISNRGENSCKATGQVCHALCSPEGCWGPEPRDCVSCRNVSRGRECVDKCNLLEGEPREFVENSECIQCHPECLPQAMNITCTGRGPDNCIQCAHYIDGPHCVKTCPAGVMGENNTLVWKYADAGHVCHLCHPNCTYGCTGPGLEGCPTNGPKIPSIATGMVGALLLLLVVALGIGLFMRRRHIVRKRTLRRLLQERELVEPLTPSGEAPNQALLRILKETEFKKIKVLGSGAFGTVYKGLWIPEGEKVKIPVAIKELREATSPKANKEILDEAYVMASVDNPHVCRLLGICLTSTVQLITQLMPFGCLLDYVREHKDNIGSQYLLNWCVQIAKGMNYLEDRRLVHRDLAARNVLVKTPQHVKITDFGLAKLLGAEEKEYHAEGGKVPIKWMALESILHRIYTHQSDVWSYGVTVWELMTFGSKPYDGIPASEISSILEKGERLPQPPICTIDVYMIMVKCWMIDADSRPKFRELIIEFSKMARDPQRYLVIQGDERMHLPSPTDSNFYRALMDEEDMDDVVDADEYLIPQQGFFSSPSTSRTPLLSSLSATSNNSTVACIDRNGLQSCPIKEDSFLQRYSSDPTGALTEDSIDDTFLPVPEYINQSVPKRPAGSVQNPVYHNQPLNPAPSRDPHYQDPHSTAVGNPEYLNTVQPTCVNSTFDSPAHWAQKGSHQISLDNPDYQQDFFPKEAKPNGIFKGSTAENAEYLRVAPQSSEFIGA

[5] = biological target: Cyclin-dependent kinase 2 (Homo sapiens) (UniProt P24941); assay: Binding affinity to wild-type human full length CDK2 (M1 to L298 residues) expressed in bacterial expression system assessed as fraction of unbound kinase to substrate at 0.1 uM after 1 hr by KinomeScan assay
[6] = biological target: Tyrosine-protein kinase receptor UFO (Homo sapiens) (UniProt P30530); assay: Binding affinity to human AXL (R497 to Y821 residues) expressed in bacterial expression system assessed as fraction of unbound kinase to substrate at 0.1 uM after 1 hr by KinomeScan assay
Chain of Tyrosine-protein kinase receptor UFO (Homo sapiens) (P30530 whole entry, the tested form may be a part): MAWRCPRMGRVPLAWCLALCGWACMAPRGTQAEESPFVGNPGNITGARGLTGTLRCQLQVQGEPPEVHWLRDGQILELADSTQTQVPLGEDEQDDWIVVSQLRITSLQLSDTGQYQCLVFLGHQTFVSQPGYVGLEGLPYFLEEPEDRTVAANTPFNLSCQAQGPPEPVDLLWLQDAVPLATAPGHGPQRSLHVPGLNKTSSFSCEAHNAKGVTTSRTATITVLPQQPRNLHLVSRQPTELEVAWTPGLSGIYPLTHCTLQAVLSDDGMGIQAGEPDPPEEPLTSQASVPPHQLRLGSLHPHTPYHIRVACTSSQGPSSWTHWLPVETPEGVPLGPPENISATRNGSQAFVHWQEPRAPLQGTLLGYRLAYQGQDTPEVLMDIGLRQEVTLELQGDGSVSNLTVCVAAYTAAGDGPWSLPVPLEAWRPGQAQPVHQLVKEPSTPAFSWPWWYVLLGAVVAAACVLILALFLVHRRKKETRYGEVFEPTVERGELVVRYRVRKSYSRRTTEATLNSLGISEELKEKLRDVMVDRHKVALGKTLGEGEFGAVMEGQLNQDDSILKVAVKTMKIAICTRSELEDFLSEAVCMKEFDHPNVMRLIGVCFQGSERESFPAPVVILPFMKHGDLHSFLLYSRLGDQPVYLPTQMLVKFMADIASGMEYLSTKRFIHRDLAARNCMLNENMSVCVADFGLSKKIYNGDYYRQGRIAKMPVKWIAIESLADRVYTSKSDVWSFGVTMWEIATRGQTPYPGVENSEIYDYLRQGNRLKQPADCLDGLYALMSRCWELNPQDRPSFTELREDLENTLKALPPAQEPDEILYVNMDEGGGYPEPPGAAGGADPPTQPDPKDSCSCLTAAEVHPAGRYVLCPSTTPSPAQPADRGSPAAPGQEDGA

[7] = biological target: Tyrosine-protein kinase receptor UFO (Homo sapiens) (UniProt P30530); assay: Binding affinity to human AXL (R497 to Y821 residues) expressed in bacterial expression system assessed as fraction of unbound kinase to substrate at 1 uM after 1 hr by KinomeScan assay
Homo sapiens [8] = species: Homo sapiens; assay: Selectivity ratio of IC50 for recombinant GST-tagged human Mer (578 to 872 residues) cytoplasmic domain to IC50 for recombinant His-tagged human Axl (473 to end residues) cytoplasmic domain
Homo sapiens [9] = species: Homo sapiens; assay: Selectivity ratio of IC50 for recombinant GST-tagged human Tyro3 (451 to 890 residues) cytoplasmic domain to IC50 for recombinant His-tagged human Axl (473 to end residues) cytoplasmic domain
[10] = Drug localization in cytoplasm of human A549 cells at 10 uM after 24 hrs by NanoSIMS analysis; assay type: ADME, subcellular; conditions: a549, 24 h
[11] = Drug localization in nucleus of human MGHU3 cells at 10 uM after 24 hrs by NanoSIMS analysis; assay type: ADME, subcellular; conditions: mghu3, 24 h
[12] = Drug localization in nucleus of human A549 cells at 10 uM after 24 hrs by NanoSIMS analysis; assay type: ADME, subcellular; conditions: a549, 24 h
[13] = Solubility of the compound in 0.2% DMSO; assay type: physicochemical

| SMILES | Activity [1] [%] | Activity [2] [%] | Activity [3] [%] | Activity [4] [%] | Activity [5] [%] | Activity [6] [%] | Activity [7] [%] | Ratio IC50 (Homo sapiens [8]) | Ratio IC50 (Homo sapiens [9]) | Drug uptake [10] | Drug uptake [11] | Drug uptake [12] | solubility [13] |
| --- | --- | --- | --- | --- | --- | --- | --- | --- | --- | --- | --- | --- | --- |
| Cc1cnc2[nH]cnc2c1Oc1ccc(NC(=O)c2cccn(-c3ccc(F)cc3)c2=O)cc1F | 3 | 0 | 0 | 1 | 0 | 22 | 67 |  |  |  |  |  |  |
| O=C(Nc1ccc(Oc2ccnc3[nH]cnc23)c(F)c1)c1cccn(-c2ccc(F)cc2)c1=O | 48 | 9 | 17 | 0 | 0 | 78 | 90.7 | 120 to 900 | 120 to 900 |  |  |  |  |
| CC(C)c1nc2c(Oc3ccc(NC(=O)c4cccn(-c5ccc(F)cc5)c4=O)cc3F)ccnc2[nH]1 | 99.7 | 0 | 1 | 2 | 41 | 61 | 90 |  |  | Active | Active | Active |  |
| O=C(Nc1ccc(Oc2c(Br)cnc3[nH]cnc23)c(F)c1)c1cccn(-c2ccc(F)cc2)c1=O | 32 | 0 | 15 | 0 | 0 | 4 | 52 |  |  |  |  |  | Insoluble |
